Results reported in the supplement of paper PMC10307832.

Tests used:
Experiment in all cases: relative viability (nuclei count vs DMSO), 5 days (fraction); higher = more cells survive
OSI-027 + Phenformin = compound: COc1cccc2cc(-c3nc([C@H]4CC[C@H](C(=O)O)CC4)n4ncnc(N)c34)[nH]c12 [OSI-027] + N=C(N)NC(=N)NCCc1ccccc1 [Phenformin] (partner 250 µM)
Summary of the method: (§1)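 One day after seeding in 1536-well plates, lung cancer cell lines were dosed by pin tool. Dosing was either single-drug or a fixed anchor-drug dose plus five library-drug doses (not always all listed) in √10 steps. After 5 days, nuclei were stained in one fix-and-stain step and counted on 4× images, and relative viability is the nuclei count of treated wells over that of vehicle wells, given as the median of duplicate plates.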

Alpelisib + Luminespib = compound: Cc1nc(NC(=O)N2CCC[C@H]2C(N)=O)sc1-c1ccnc(C(C)(C)C(F)(F)F)c1 [Alpelisib] + CCNC(=O)c1noc(-c2cc(C(C)C)c(O)cc2O)c1-c1ccc(CN2CCOCC2)cc1 [Luminespib] (partner 0.01 µM)
Summary of the method: as §1

Vemurafenib + Trametinib = compound: CCCS(=O)(=O)Nc1ccc(F)c(C(=O)c2c[nH]c3ncc(-c4ccc(Cl)cc4)cc23)c1F [Vemurafenib] + CC(=O)Nc1cccc(-n2c(=O)n(C3CC3)c(=O)c3c(Nc4ccc(I)cc4F)n(C)c(=O)c(C)c32)c1 [Trametinib] (partner 0.02 µM)
Summary of the method: as §1

Alpelisib + Pemetrexed = compound: Cc1nc(NC(=O)N2CCC[C@H]2C(N)=O)sc1-c1ccnc(C(C)(C)C(F)(F)F)c1 [Alpelisib] + Nc1nc2[nH]cc(CCc3ccc(C(=O)N[C@@H](CCC(=O)O)C(=O)O)cc3)c2c(=O)[nH]1 [Pemetrexed] (partner 0.2 µM)
Summary of the method: as §1

| Cell Line | relative viability (OSI-027 + Phenformin; first compound 0.01 µM) | relative viability (OSI-027 + Phenformin; first compound 0.03162 µM) | relative viability (OSI-027 + Phenformin; first compound 0.1 µM) | relative viability (OSI-027 + Phenformin; first compound 0.3162 µM) | relative viability (OSI-027 + Phenformin; first compound 1 µM) | relative viability (Alpelisib + Luminespib; first compound 0.04 µM) | relative viability (Alpelisib + Luminespib; first compound 0.1265 µM) | relative viability (Alpelisib + Luminespib; first compound 0.4 µM) | relative viability (Alpelisib + Luminespib; first compound 1.265 µM) | relative viability (Alpelisib + Luminespib; first compound 4 µM) | relative viability (Vemurafenib + Trametinib; first compound 0.03162 µM) | relative viability (Vemurafenib + Trametinib; first compound 0.1 µM) | relative viability (Vemurafenib + Trametinib; first compound 0.3162 µM) | relative viability (Vemurafenib + Trametinib; first compound 1 µM) | relative viability (Alpelisib + Pemetrexed; first compound 0.04 µM) | relative viability (Alpelisib + Pemetrexed; first compound 0.1265 µM) | relative viability (Alpelisib + Pemetrexed; first compound 0.4 µM) | relative viability (Alpelisib + Pemetrexed; first compound 1.265 µM) | relative viability (Alpelisib + Pemetrexed; first compound 4 µM) |
| --- | --- | --- | --- | --- | --- | --- | --- | --- | --- | --- | --- | --- | --- | --- | --- | --- | --- | --- | --- |
| CAL-12T | 0.584 | 0.644 | 0.512 | 0.618 | 0.355 | 0.394 | 0.61 | 0.287 | 0.177 | 0.332 | 0.28 | 0.289 | 0.438 | 0.442 | 1.26 | 1.14 | 1.3 | 0.93 | 1.03 |
| COR-L23 | 0.53 | 0.445 | 0.476 | 0.445 | 0.206 | 0.678 | 0.748 | 0.696 | 0.62 | 0.477 | 0.619 | 0.58 | 0.433 | 0.691 | 0.188 | 0.184 | 0.215 | 0.2 | 0.196 |
| COR-L 105 | 0.47 | 0.466 | 0.479 | 0.351 | 0.359 | 0.768 | 0.565 | 0.956 | 0.59 | 0.86 | 0.418 | – | 0.428 | 0.655 | 1.12 | 1.18 | 1.39 | 0.935 | 1.13 |
| ChaGo-K-1 | 0.43 | 0.499 | 0.436 | 0.409 | 0.323 | 0.61 | 0.488 | 0.706 | 0.585 | 0.507 | 0.834 | 0.875 | 0.868 | 0.898 | 0.265 | 0.257 | 0.263 | 0.263 | 0.251 |
